In patent US9663511B2, “Sphingosine 1-phosphate receptor antagonists” (ARROYO BIOSCIENCES, LLC, priority 2012, dated 2017):
Several values for one entry are separate records, joined by “and”; a condition that tells them apart may be missing. Identical values can stand only once. Like-named read-outs stand apart in the source and are kept apart here.

Tests used:
[1] = target: S1P5 receptor (Homo sapiens (Human), UniProt Q9H228); assay: Antagonist assay (FLIPR TETRA, inhibition of reference agonist EC80) on S1P5; assay type: cell-based; conditions: tested as the citrate salt
S1P5 receptor, sequence (Q9H228 whole entry): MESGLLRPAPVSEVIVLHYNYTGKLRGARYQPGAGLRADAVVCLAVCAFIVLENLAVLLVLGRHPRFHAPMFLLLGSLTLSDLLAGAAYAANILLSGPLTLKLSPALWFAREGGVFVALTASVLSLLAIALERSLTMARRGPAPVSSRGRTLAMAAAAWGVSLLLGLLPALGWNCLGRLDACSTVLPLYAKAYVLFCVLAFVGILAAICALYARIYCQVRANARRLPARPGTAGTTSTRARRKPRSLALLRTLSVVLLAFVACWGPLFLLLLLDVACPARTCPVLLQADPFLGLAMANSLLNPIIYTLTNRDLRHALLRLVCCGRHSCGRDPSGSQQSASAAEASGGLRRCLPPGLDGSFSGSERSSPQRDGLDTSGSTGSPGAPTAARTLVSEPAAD
Protocol: (§1) Antagonist percentage inhibition determinations were obtained by assaying sample compounds and referencing the control (EC80) wells for each profiled (GPCR) which evaluated binding to S1P2 and S1P5 receptors. The samples were run using a single addition assay protocol. The protocol design is as follows.
(§2) Unless specified otherwise, the sample compounds were diluted in 100% anhydrous DMSO including all dilutions. The compounds were tested as the citrate salt (1 equivalent per molecule). If the sample compound is provided in a different solvent all master stock dilutions are performed in the specified solvent. All control wells contained identical solvent final concentrations as the sample compound wells.
(§3) The sample compounds were transferred from a master stock solution into a daughter plate that was used in the assay. Each sample compound was diluted into an assay buffer (1×HBSS with 20 mM HEPES, 2.5 mM Probenecid, and 0.4% Free Fatty Acid BSA) at an appropriate concentration to obtain final specified concentrations.
(§4) Using the EC80 values that were determined real-time, stimulated all pre-incubated sample compounds and reference antagonists (if applicable) were compared with the EC80 values of reference agonist. These were read for 180 seconds using the FLIPR^TETRA (This assay added reference agonist to respective wells-then fluorescences measurements were collected to calculate IC50 values). All plates were subjected to appropriate baseline corrections. Once baseline corrections were processed, maximum fluorescence values were exported and data manipulated to calculate percentage activation, percentage inhibition and Z′.

[2] = Blood concentrations and pharmacokinetics after 1 mg/kg i.v. in mice; assay type: in vivo, mouse; conditions: for pharmacokinetics / blood levels following intravenous injection in mice (in words): comparison between compounds
Protocol: 1 mg/kg of the compound was injected by IV and blood was withdrawn at the times in table 1. The amount of starting compound was quantified by a standard curve using MS/MS determinations.

[3] = In vitro plasma protein binding; assay type: in vitro ADME, mouse; conditions: for mean fraction bound (%): mouse plasma, test concentration 5 nM
[4] = Microsomal intrinsic clearance; conditions: for microsomal CLint at 1 μM / half-life at 1 μM: mouse, liver microsomes, mouse microsomes, test conc. 1 μM
[5] = target: S1P2 receptor (Homo sapiens (Human), UniProt O95136); assay: Antagonist assay (FLIPR TETRA, inhibition of reference agonist EC80) on S1P2; assay type: cell-based; conditions: tested as the citrate salt
S1P2 receptor, sequence (O95136 whole entry): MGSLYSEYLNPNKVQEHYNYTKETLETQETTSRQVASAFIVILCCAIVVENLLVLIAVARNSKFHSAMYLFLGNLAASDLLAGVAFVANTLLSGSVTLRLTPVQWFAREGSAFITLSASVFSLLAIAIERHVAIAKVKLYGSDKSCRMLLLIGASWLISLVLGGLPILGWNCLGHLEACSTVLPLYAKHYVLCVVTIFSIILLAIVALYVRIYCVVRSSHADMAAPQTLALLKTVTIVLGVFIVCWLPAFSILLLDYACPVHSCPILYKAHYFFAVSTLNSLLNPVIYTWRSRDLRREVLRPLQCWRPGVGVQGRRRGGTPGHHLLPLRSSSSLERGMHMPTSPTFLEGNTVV
Protocol: as §1, §2, §3, §4

[6] = NADPH-dependent Clint (microsomal intrinsic clearance)
[7] = NADPH-dependent T1/2 (half-life)
[8] = NADPH-free Clint (microsomal intrinsic clearance)

With `C=CCn1nc(C)c2c(C(C)C)cc(NNC(=O)Nc3cc(Cl)nc(Cl)c3)nc21` [Compound 1] the IC50 [1] was 2.2 nM, the AUC0-inf ([2]; mouse blood, individual mice) was 92.4 ng·h/mL and 192 ng·h/mL and the “AUC0-inf Extrapolated” value ([2]; mouse blood, individual mice) was 19.3% and 63.8%. The AUC0-tlast ([2]; mouse blood, individual mice) was 74.6 ng·h/mL and 69.5 ng·h/mL, the AUMC0-inf ([2]; mouse blood, individual mice) was 604 h^2*ng/mL and 9010 h^2*ng/mL and the “AUMC0-inf Extrapolated” value ([2]; mouse blood, individual mice) was 74.1% and 98.2%. For the same molecule, the AUMC0-tlast ([2]; mouse blood, individual mice) was 12.7 h^2*ng/mL and 157 h^2*ng/mL and 166 h^2*ng/mL, the C0 ([2]; mouse blood, individual mice) was 262 ng/mL and 251 ng/mL and the CL ([2]; mouse blood, individual mice) was 10.8 L/h/kg and 5.20 L/h/kg. For the same molecule, the MRT0-inf ([2]; mouse blood, individual mice) was 6.53 h and 46.9 h, the MRT0-tlast ([2]; mouse blood, individual mice) was 0.236 h and 2.10 h and 2.39 h and the Terminal half-life ([2]; mouse blood, individual mice) was 9.08 h and 41.7 h. For the same molecule, the Vss ([2]; mouse blood, individual mice) was 70.7 L/kg and 244 L/kg, the “AUC0-inf Extrapolated, Mean S.D.” value ([2]; mouse blood, mean) was 41.5 (n = 2) % and the “AUMC0-inf Extrapolated, Mean S.D.” value ([2]; mouse blood, mean) was 86.1 (n = 2) %. For the same molecule, the “AUMC0-inf, Mean S.D.” value ([2]; mouse blood, mean) was 4810 (n = 2) h^2*ng/mL, the “AUMC0-tlast, Mean S.D.” value ([2]; mouse blood, mean) was 112 ± 86.0 h^2*ng/mL and the “C0, Mean S.D.” value ([2]; mouse blood, mean) was 295 ± 66.2 ng/mL. For the same molecule, the “Blood Concentrations” value ([2]; mouse, 5 min, individual mice, LLOQ = 1 ng/mL) was 152 ng/mL and 143 ng/mL, the “Blood Concentrations” value ([2]; mouse, 0.25 h, individual mice, LLOQ = 1 ng/mL) was 51.2 ng/mL and 46.3 ng/mL and the “Blood Concentrations” value ([2]; mouse, 0.5 h, individual mice, LLOQ = 1 ng/mL) was 22.8 ng/mL and 17.1 ng/mL. For the same molecule, the “Blood Concentrations” value ([2]; mouse, 1 h, individual mice, LLOQ = 1 ng/mL) was 7.90 ng/mL and 6.44 ng/mL, the “Blood Concentrations” value ([2]; mouse, 2 h, individual mice, LLOQ = 1 ng/mL) was 1.13 ng/mL and 3.12 ng/mL and 2.96 ng/mL and the “Blood Concentrations” value ([2]; mouse, 4 h, individual mice, LLOQ = 1 ng/mL) was “BLQ and 1.98 ng/mL”. For the same molecule, the “Blood Concentrations” value ([2]; mouse, 6 h, individual mice, LLOQ = 1 ng/mL) was “BLQ and 2.25 ng/mL”, the “Blood Concentrations” value ([2]; mouse, 12 h, individual mice, LLOQ = 1 ng/mL) was “BLQ and 2.04 ng/mL” and the “pharmacokinetics / blood levels following intravenous injection in mice (in words)” value ([2]; mouse) was “substantially improved pharmacokinetics”. The “pharmacokinetics / blood levels following intravenous injection in mice (in words)” value ([2]; mouse, listed as compound 1) was “highest drug blood levels over time”, the AUC(0-t) ([2]; mouse, whole blood, iv, 1 mg/kg, mouse blood, individual mice, read-out: AUC0-tlast) was 53.9 ng·h/mL and the C0 ([2]; mouse, whole blood, iv, 1 mg/kg, mouse blood, individual mice, read-out: C0) was 371 ng/mL. The AUC0-inf ([2]; mouse, whole blood, iv, 1 mg/kg, mouse blood, mean, read-out: AUC0-inf, Mean S.D.) was 142 ng·h/mL, the AUC(0-t) ([2]; mouse, whole blood, iv, 1 mg/kg, mouse blood, mean, read-out: AUC0-tlast, Mean S.D.) was 66 ± 10.8 ng·h/mL and the clearance ([2]; mouse, whole blood, iv, 1 mg/kg, mouse blood, mean, read-out: CL, Mean S.D. (converted)) was 134 mL/min/kg. The MRT inf ([2]; mouse, whole blood, iv, 1 mg/kg, mouse blood, mean, read-out: MRT0-inf, Mean S.D.) was 26.7 h, the MRT last ([2]; mouse, whole blood, iv, 1 mg/kg, mouse blood, mean, read-out: MRT0-tlast, Mean S.D.) was 1.58 h and the half-life ([2]; mouse, whole blood, iv, 1 mg/kg, mouse blood, mean, read-out: Terminal half-life, Mean S.D. (converted)) was 1520 min. For the same molecule, the Vd ([2]; mouse, whole blood, iv, 1 mg/kg, mouse blood, mean, read-out: Vss, Mean S.D.) was 157 L/kg, the concentration at 5 min ([2]; mouse, whole blood, iv, 1 mg/kg, mouse, 5 min, individual mice, LLOQ = 1 ng/mL, read-out: Blood Concentrations) was 188 ng/mL and the concentration at 5 min ([2]; mouse, whole blood, iv, 1 mg/kg, mouse, 5 min, mean of 3 mice, read-out: Blood Concentrations, Mean S.D.) was 161 ± 23.8 ng/mL. The concentration at 0.25 h ([2]; mouse, whole blood, iv, 1 mg/kg, mouse, 0.25 h, individual mice, LLOQ = 1 ng/mL, read-out: Blood Concentrations) was 48.3 ng/mL, the concentration at 0.25 h ([2]; mouse, whole blood, iv, 1 mg/kg, mouse, 0.25 h, mean of 3 mice, read-out: Blood Concentrations, Mean S.D.) was 48.6 ± 2.46 ng/mL and the concentration at 0.5 h ([2]; mouse, whole blood, iv, 1 mg/kg, mouse, 0.5 h, individual mice, LLOQ = 1 ng/mL, read-out: Blood Concentrations) was 14.9 ng/mL. The concentration at 0.5 h ([2]; mouse, whole blood, iv, 1 mg/kg, mouse, 0.5 h, mean of 3 mice, read-out: Blood Concentrations, Mean S.D.) was 18.3 ± 4.08 ng/mL, the concentration at 1 h ([2]; mouse, whole blood, iv, 1 mg/kg, mouse, 1 h, individual mice, LLOQ = 1 ng/mL, read-out: Blood Concentrations) was 5.11 ng/mL and the concentration at 1 h ([2]; mouse, whole blood, iv, 1 mg/kg, mouse, 1 h, mean of 3 mice, read-out: Blood Concentrations, Mean S.D.) was 6.48 ± 1.4 ng/mL. It also gave a concentration at 2 h ([2]; mouse, whole blood, iv, 1 mg/kg, mouse, 2 h, mean of 3 mice, read-out: Blood Concentrations, Mean S.D.) of 2.4 ± 1.11 ng/mL, a concentration at 4 h ([2]; mouse, whole blood, iv, 1 mg/kg, mouse, 4 h, individual mice, LLOQ = 1 ng/mL, read-out: Blood Concentrations) of 2.22 ng/mL and a concentration at 4 h ([2]; mouse, whole blood, iv, 1 mg/kg, mouse, 4 h, mean (n = 2 for Cmpd-1), read-out: Blood Concentrations, Mean S.D.) of 2.1 ng/mL. The concentration at 6 h ([2]; mouse, whole blood, iv, 1 mg/kg, mouse, 6 h, individual mice, LLOQ = 1 ng/mL, read-out: Blood Concentrations) was 2.55 ng/mL, the concentration at 6 h ([2]; mouse, whole blood, iv, 1 mg/kg, mouse, 6 h, mean (n = 2 for Cmpd-1), read-out: Blood Concentrations, Mean S.D.) was 2.4 ng/mL and the concentration at 12 h ([2]; mouse, whole blood, iv, 1 mg/kg, mouse, 12 h, individual mice, LLOQ = 1 ng/mL, read-out: Blood Concentrations) was 1.36 ng/mL. The concentration at 12 h ([2]; mouse, whole blood, iv, 1 mg/kg, mouse, 12 h, mean (n = 2 for Cmpd-1), read-out: Blood Concentrations, Mean S.D.) was 1.7 ng/mL, the “mean fraction bound (%)” value [3] was 99.9% and the microsomal CLint at 1 μM [4, 6] was 1170 µL/min/mg. It also gave a half-life at 1 μM [4, 7] of 2 min, a microsomal CLint at 1 μM [4, 8] of 48 µL/min/mg and a half-life at 1 μM ([4]; NADPH-free T1/2 (half-life)) of 48 min. For the same molecule, the IC50 [5] was 1.2 nM.
With `Cc1nn(C)c2nc(N(CC(=O)O)NC(=O)Nc3cc(Cl)nc(Cl)c3)cc(C(C)C)c12` [Compound 2] the IC50 [1] was 3.2 nM, the “plasma protein binding (in words)” value ([3]; compared with JTE013 and compound 1) was “lower plasma protein binding” and the “mean fraction bound (%)” value [3] was 77.0%. For the same molecule, the “stability in liver microsomes (in words)” value ([4]; compared with JTE013) was “much more stable in liver microsomes”, the microsomal CLint at 1 μM [4, 6] was 20 µL/min/mg and the half-life at 1 μM [4, 7] was 113 min. The microsomal CLint at 1 μM [4, 8] was 9 µL/min/mg, the half-life at 1 μM ([4]; NADPH-free T1/2 (half-life)) was over 180 min and the IC50 [5] was 11 nM.
Molecule `C=CCn1nc(C)c2c(C(C)C)cc(N(CC(=O)O)NC(=O)Nc3cc(Cl)nc(Cl)c3)nc21` [Compound 3] has an IC50 [1] of 5700 nM and an IC50 [5] of 3000 nM.
Molecule `C=CCn1nc(C)c2c(C(F)(F)F)cc(NNC(=O)Nc3cc(Cl)nc(Cl)c3)nc21` [Compound 5] has an IC50 [1] of over 10000 nM and an IC50 [5] of over 10000 nM.
`C=CCn1nc(C)c2c(C(C)C)cc(ONC(=O)Nc3cc(Cl)nc(Cl)c3)nc21` [Compound 6] showed an IC50 [1] of 8.7 nM and an IC50 [5] of 52 nM.
`Cc1nn(C)c2nc(N(CCO)NC(=O)Nc3cc(Cl)nc(Cl)c3)cc(C(C)C)c12` [Compound 9, N-(2,6-Dichloropyridin-4-yl)-2-(2-hydroxyethyl)-2-(4-isopropyl-1,3-dimethyl-1H-pyrazolo[3,4-b]pyridin-6-yl)hydrazine-1-carboxamide] gave an IC50 [1] of 20.9 nM and an IC50 [5] of 7 nM.
Molecule `C=CCn1nc(C)c2c(C(C)C)cc(NNC(=O)Nc3cc(Cl)nc(Cl)c3)nc21` [Compound 27] has an IC50 [1] of 165 nM and an IC50 [5] of 75 nM.
Molecule `CC(C)c1cc(NNC(=O)Nc2cc(Cl)nc(Cl)c2)nc2c(CCCO)nn(C)c12` [Compound 33] has an IC50 [1] of under 10 nM and an IC50 [5] of 5 nM.
For `CCOc1cc(NC(=O)NN(CCO)c2cc(C(C)C)c3c(C)nn(C)c3n2)cc(Cl)n1` [Compound 35], the IC50 [1] was 13 nM and the IC50 [5] was 29 nM.
Work on `CCCOc1cc(NC(=O)NN(CCO)c2cc(C(C)C)c3c(C)nn(C)c3n2)cc(Cl)n1` [Compound 36] yielded an IC50 [1] of 33 nM and an IC50 [5] of 10 nM.
